Measurements reported in ChEMBL document CHEMBL5728939, “Myocyte enhancer factor 2 (MEF2) modulators” (2022).

Legend:
[1] = molecular target: Histone deacetylase 4/Myocyte-specific enhancer factor 2D (Homo sapiens, UniProt P56524+Q14814); assay: Inhibitory Effects of the Compounds on MEF2D and HDAC4 Protein Interactions: Detection of MEF2D and HDAC4 interactions. In this mammalian two-hybrid assay, HDAC4 and MEF2D proteins were used. […] Human epithelial carcinoma cells (HeLa) were co-transfected with the two DNA constructs (GAL4-MEF2D and HDAC4-VP16) and a reporter plasmid (Gal4Luc). […] MEF2D and HDAC4 protein interactions were detected as a result of the GAL4-MEF2D and HDAC4-VP16 protein complex binding a DNA promoter on the reporter plasmid (Gal4Luc) and driving cellular expression of a luciferase gene. The measured luciferase protein signal was proportional to the amount of MEF2D and HDAC4 protein interactions occurring with the cell.
Sequence of Histone deacetylase 4/Myocyte-specific enhancer factor 2D (P56524 whole entry, the tested form may be a part): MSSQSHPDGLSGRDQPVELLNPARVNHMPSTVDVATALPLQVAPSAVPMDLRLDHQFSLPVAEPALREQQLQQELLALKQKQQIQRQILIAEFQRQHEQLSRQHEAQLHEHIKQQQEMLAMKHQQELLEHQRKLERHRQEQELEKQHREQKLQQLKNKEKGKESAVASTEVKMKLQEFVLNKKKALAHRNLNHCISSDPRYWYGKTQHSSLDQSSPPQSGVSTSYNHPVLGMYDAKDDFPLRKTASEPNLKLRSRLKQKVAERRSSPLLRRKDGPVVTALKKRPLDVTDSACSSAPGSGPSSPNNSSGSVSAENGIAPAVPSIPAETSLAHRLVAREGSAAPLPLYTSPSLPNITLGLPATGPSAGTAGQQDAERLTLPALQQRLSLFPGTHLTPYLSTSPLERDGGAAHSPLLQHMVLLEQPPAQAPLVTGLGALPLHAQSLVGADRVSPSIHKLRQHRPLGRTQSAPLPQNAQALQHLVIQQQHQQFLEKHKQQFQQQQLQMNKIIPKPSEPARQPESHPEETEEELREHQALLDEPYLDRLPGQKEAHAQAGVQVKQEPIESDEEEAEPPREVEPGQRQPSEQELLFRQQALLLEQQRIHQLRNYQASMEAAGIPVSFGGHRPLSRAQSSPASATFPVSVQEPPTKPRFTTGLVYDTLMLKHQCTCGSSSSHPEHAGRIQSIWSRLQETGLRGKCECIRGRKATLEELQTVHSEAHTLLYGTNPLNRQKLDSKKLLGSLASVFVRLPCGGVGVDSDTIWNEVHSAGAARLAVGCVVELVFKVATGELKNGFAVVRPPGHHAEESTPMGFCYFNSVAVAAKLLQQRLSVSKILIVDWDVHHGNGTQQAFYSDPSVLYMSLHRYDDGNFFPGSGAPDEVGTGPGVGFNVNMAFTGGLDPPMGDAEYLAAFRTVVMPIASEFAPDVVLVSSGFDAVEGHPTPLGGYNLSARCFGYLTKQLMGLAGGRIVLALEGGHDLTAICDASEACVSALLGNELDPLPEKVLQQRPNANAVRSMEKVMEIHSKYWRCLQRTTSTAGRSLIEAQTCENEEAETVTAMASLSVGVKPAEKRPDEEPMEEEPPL
Sequence of Histone deacetylase 4/Myocyte-specific enhancer factor 2D (Q14814 whole entry, the tested form may be a part): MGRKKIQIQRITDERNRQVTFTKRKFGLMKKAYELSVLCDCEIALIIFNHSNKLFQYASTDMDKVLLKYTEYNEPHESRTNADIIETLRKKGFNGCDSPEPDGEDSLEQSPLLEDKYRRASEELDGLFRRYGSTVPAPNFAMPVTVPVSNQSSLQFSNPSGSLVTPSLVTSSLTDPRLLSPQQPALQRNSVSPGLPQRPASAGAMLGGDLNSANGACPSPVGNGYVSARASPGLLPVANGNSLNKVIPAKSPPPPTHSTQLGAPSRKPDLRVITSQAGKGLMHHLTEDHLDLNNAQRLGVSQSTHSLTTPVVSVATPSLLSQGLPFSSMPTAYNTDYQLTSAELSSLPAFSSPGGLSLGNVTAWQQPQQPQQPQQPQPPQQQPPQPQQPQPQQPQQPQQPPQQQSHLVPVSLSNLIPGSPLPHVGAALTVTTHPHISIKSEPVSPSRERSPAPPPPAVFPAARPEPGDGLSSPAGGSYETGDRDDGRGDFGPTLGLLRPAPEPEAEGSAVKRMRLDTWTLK

[2] = molecular target: Histone acetyltransferase p300/Myocyte-specific enhancer factor 2D (Homo sapiens, UniProt Q09472+Q14814); assay: Inhibitory Effects of the Compounds on MEF2D and P300 Protein Interactions: Detection of MEF2D and P300 interactions. The same system that was used in Example 19 is used in here to detect MEF2D and P300 interactions. In this assay, two separate DNA constructs were made with MEF2D fused with the GAL4 DNA binding domain (GAL4-MEF2D) and P300 fused with the viral transactivator VP-16 […] epithelial carcinoma cells (HeLa) were co-transfected with the two DNA constructs (GAL4-MEF2D and P300-VP16) and a reporter plasmid (Gal4Luc). […] MEF2D and P300 protein interactions were detected as a result of the GAL4-MEF2D and P300-VP16 protein complex binding a DNA promoter on the reporter plasmid (Gal4Luc) and driving cellular expression of a luciferase gene. The measured luciferase protein signal was proportional to the amount of MEF2D and P300 protein interactions occurring with the cell.
Sequence of Histone acetyltransferase p300/Myocyte-specific enhancer factor 2D (Q09472 whole entry, the tested form may be a part): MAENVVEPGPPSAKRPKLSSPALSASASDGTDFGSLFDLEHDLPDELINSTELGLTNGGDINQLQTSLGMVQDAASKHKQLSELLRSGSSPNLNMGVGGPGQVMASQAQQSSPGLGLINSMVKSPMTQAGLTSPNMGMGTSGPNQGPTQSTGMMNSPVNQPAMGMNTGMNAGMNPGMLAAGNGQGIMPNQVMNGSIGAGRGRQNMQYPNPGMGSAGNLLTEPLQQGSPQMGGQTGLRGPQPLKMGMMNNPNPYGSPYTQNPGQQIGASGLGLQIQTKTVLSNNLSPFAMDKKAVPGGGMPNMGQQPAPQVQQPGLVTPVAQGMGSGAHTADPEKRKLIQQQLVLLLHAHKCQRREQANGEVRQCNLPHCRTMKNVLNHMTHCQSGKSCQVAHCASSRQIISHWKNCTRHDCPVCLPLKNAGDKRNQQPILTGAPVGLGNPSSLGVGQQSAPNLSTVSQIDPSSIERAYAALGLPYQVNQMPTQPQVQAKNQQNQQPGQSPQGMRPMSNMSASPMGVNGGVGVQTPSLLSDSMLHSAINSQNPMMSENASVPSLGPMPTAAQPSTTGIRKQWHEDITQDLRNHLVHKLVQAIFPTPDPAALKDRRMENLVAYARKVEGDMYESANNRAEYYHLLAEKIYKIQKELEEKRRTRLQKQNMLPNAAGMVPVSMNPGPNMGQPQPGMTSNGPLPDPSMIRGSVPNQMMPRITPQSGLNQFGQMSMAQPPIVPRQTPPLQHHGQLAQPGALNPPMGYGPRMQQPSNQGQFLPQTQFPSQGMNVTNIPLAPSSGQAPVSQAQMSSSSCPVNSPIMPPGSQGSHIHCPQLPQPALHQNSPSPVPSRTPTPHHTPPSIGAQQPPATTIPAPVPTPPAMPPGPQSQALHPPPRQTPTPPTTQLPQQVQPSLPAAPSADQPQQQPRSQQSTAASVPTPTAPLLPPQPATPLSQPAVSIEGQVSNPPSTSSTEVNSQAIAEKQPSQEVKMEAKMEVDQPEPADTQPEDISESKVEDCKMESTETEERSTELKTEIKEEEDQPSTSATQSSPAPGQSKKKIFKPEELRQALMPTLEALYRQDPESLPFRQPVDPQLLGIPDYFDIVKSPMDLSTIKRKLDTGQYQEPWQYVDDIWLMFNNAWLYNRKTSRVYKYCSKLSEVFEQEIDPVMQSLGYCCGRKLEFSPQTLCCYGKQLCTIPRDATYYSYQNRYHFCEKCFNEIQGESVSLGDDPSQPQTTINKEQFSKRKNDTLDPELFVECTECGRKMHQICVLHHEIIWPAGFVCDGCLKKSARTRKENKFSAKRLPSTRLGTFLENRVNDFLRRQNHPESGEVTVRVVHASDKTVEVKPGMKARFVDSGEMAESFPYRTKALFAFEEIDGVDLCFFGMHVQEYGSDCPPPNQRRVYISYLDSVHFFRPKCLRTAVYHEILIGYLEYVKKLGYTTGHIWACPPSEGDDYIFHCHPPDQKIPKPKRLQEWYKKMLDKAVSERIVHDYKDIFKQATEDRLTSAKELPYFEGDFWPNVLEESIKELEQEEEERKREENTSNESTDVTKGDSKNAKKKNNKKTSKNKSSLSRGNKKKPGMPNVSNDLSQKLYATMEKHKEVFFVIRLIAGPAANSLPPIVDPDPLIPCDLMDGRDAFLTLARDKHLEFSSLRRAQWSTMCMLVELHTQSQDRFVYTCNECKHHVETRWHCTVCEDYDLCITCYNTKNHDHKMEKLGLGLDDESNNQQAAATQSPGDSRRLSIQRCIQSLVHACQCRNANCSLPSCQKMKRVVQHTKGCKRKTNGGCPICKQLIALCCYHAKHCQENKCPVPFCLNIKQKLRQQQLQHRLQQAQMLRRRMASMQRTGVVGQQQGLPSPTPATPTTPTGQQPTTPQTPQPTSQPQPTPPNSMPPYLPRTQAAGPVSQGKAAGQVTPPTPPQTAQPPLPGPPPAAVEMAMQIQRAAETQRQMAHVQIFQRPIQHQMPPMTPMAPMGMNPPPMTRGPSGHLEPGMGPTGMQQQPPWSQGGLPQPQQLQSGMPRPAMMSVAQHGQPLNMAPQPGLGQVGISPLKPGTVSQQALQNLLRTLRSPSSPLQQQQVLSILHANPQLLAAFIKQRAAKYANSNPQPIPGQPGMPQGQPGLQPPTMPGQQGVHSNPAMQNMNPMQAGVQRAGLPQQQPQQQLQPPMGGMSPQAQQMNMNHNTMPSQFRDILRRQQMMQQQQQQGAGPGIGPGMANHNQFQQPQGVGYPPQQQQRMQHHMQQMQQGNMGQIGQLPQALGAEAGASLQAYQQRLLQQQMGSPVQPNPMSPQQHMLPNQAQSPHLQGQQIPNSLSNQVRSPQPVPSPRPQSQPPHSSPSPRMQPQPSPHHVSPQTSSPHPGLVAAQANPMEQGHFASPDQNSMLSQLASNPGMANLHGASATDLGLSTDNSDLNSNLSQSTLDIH
Sequence of Histone acetyltransferase p300/Myocyte-specific enhancer factor 2D (Q14814 whole entry, the tested form may be a part): as the sequence (Q14814 whole entry, the tested form may be a part) above

SMILES | IC50 [1] [µM] | IC50 [2] [µM]
Nc1ccccc1NC(=O)/C=C/c1cccc(CNc2ccc3ccccc3c2)c1 | 7.27 | 0.72
Cc1[nH]c2ccccc2c1CCNCc1cccc(/C=C/C(=O)Nc2ccccc2N)c1 | 0.51 | 0.27
Nc1ccccc1NC(=O)CCCCC(NC(=O)c1ccccc1)C(=O)Nc1ccccc1 (stereo unspecified) | 0.8 | 0.7
